Data reported in article PMC7411887, “New Paracyclophanylthiazoles with Anti-Leukemia Activity: Design, Synthesis, Molecular Docking, and Mechanistic Studies” (Molecules, 2020).
Like-named read-outs stand apart in the source and are kept apart here.

Experiments:
leukemia RPMI-8226 = assay: MTT antiproliferative assay
leukemia SR = assay: MTT antiproliferative assay; conditions: Homo sapiens, read-out: Cytotoxicity IC50 L.SR
NCI-H23 = assay: NCI single-dose screen (SRB); assay type: cell-based; conditions: Homo sapiens; Non-Small-Cell Lung Cancer NCI-H23; 10^−5 M; read-out: Growth inhibition percentage
Method: (§1) The methodology of the NCI anticancer screening was described in detail elsewhere (http://www.dtp.nci.nih.gov). […] Tested compounds were added to the culture at a single concentration (10^−5 M) and the cultures were incubated for 48 h. End-point determinations were made with a protein binding dye, SRB. Results for each tested compound were reported as the percentage growth of the treated cells when compared to the untreated control cells. The percentage growth was evaluated spectrophotometrically versus controls not treated with test agents. All experiments were repeated three times (Table 1).
(§2) Briefly, the protocol was performed on 60 human tumor cell lines derived from different nine neoplastic diseases. […] If the results obtained met selection criteria, then the compound was tested again on all 60 cell lines in 5× 10-fold dilutions with the top dose being 10^−4 M or 150 μg/mL. Detailed methods are described in the Supplementary Materials related to this article.
(§3) on their site (http://www.dtp.nci.nih.gov). But briefly, the protocol performed at sixty human
(§4) National Cancer Institute, Bethesda, USA. If the results obtained meet selection criteria, then the
(§5) 10-4 molar or 150 μg/mL. […]

SK-MEL-5 = assay: NCI single-dose screen (SRB); assay type: cell-based; conditions: Homo sapiens; Melanoma SK-MEL-5; 10^−5 M; read-out: Growth inhibition percentage
Method: as §1, §2, §3, §4, §5

SNB-19 = assay: NCI single-dose screen (SRB); assay type: cell-based; conditions: Homo sapiens; CNS Cancer SNB-19; 10^−5 M; read-out: Growth inhibition percentage
Method: as §1, §2, §3, §4, §5

A549/ATCC = assay: NCI single-dose screen (SRB); assay type: cell-based; conditions: Homo sapiens; Non-Small-Cell Lung Cancer A549/ATCC; 10^−5 M; read-out: Growth inhibition percentage
Method: as §1, §2, §3, §4, §5

MOLT-4 = assay: NCI single-dose screen (SRB); assay type: cell-based; conditions: Homo sapiens; Leukemia MOLT-4; 10^−5 M; read-out: Growth inhibition percentage
Method: as §1, §2, §3, §4, §5

SF-539 = assay: NCI single-dose screen (SRB); assay type: cell-based; conditions: Homo sapiens; CNS Cancer SF-539; 10^−5 M; read-out: Growth inhibition percentage
Method: as §1, §2, §3, §4, §5

HCC-2998 = assay: NCI single-dose screen (SRB); assay type: cell-based; conditions: Homo sapiens; Colon Cancer HCC-2998; 10^−5 M; read-out: Growth inhibition percentage
Method: as §1, §2, §3, §4, §5

SK-MEL-2 = assay: NCI single-dose screen (SRB); assay type: cell-based; conditions: Homo sapiens; Melanoma SK-MEL-2; 10^−5 M; read-out: Growth inhibition percentage
Method: as §1, §2, §3, §4, §5

PC-3 = assay: NCI single-dose screen (SRB); assay type: cell-based; conditions: Homo sapiens; Prostate Cancer PC-3; 10^−5 M; read-out: Growth inhibition percentage
Method: as §1, §2, §3, §4, §5

K-562 = assay: NCI single-dose screen (SRB); assay type: cell-based; conditions: Homo sapiens, K562; Leukemia K-562; 10^−5 M; read-out: Growth inhibition percentage
Method: as §1, §2, §3, §4, §5

MALME-3M = assay: NCI single-dose screen (SRB); assay type: cell-based; conditions: Homo sapiens; Melanoma MALME-3M; 10^−5 M; read-out: Growth inhibition percentage
Method: as §1, §2, §3, §4, §5

CCRF-CEM = assay: NCI single-dose screen (SRB); assay type: cell-based; conditions: Homo sapiens; Leukemia CCRF-CEM; 10^−5 M; read-out: Growth inhibition percentage
Method: as §1, §2, §3, §4, §5

BT-549 = assay: NCI single-dose screen (SRB); assay type: cell-based; conditions: Homo sapiens; Breast Cancer BT-549; 10^−5 M; read-out: Growth inhibition percentage
Method: as §1, §2, §3, §4, §5

HOP-62 = assay: NCI single-dose screen (SRB); assay type: cell-based; conditions: Homo sapiens; Non-Small-Cell Lung Cancer HOP-62; 10^−5 M; read-out: Growth inhibition percentage
Method: as §1, §2, §3, §4, §5

OVCAR-4 = assay: NCI single-dose screen (SRB); assay type: cell-based; conditions: Homo sapiens; Ovarian Cancer OVCAR-4; 10^−5 M; read-out: Growth inhibition percentage
Method: as §1, §2, §3, §4, §5

HT29 = assay: NCI single-dose screen (SRB); assay type: cell-based; conditions: Homo sapiens, HT-29; Colon Cancer HT29; 10^−5 M; read-out: Growth inhibition percentage
Method: as §1, §2, §3, §4, §5

UACC-62 = assay: NCI single-dose screen (SRB); assay type: cell-based; conditions: Homo sapiens; Melanoma UACC-62; 10^−5 M; read-out: Growth inhibition percentage
Method: as §1, §2, §3, §4, §5

NCI-H460 = assay: NCI single-dose screen (SRB); assay type: cell-based; conditions: Homo sapiens; Non-Small-Cell Lung Cancer NCI-H460; 10^−5 M; read-out: Growth inhibition percentage
Method: as §1, §2, §3, §4, §5

MCF7 = assay: NCI single-dose screen (SRB); assay type: cell-based; conditions: Homo sapiens; Breast Cancer MCF7; 10^−5 M; read-out: Growth inhibition percentage
Method: as §1, §2, §3, §4, §5

TK-10 = assay: NCI single-dose screen (SRB); assay type: cell-based; conditions: Homo sapiens; Renal Cancer TK-10; 10^−5 M; read-out: Growth inhibition percentage
Method: as §1, §2, §3, §4, §5

OVCAR-3 = assay: NCI single-dose screen (SRB); assay type: cell-based; conditions: Homo sapiens; Ovarian Cancer OVCAR-3; 10^−5 M; read-out: Growth inhibition percentage
Method: as §1, §2, §3, §4, §5

T-47D = assay: NCI single-dose screen (SRB); assay type: cell-based; conditions: Homo sapiens, T47D; Breast Cancer T-47D; 10^−5 M; read-out: Growth inhibition percentage
Method: as §1, §2, §3, §4, §5

NCI-H322M = assay: NCI single-dose screen (SRB); assay type: cell-based; conditions: Homo sapiens; Non-Small-Cell Lung Cancer NCI-H322M; 10^−5 M; read-out: Growth inhibition percentage
Method: as §1, §2, §3, §4, §5

HL-60(TB) = assay: NCI single-dose screen (SRB); assay type: cell-based; conditions: Homo sapiens; Leukemia HL-60(TB); 10^−5 M; read-out: Growth inhibition percentage
Method: as §1
Briefly, the protocol was performed on 60 human tumor cell lines derived from different nine neoplastic diseases. […] If the results obtained met selection criteria, then the compound was tested again on all 60 cell lines in 5× 10-fold dilutions with the top dose being 10^−4 M or 150 μg/mL. Detailed methods are described in the Supplementary Materials related to this article. […]
on their site (http://www.dtp.nci.nih.gov). But briefly, the protocol performed at sixty human […]
National Cancer Institute, Bethesda, USA. If the results obtained meet selection criteria, then the […]
10-4 molar or 150 μg/mL. Detailed methods are described in supplementary material related to […]
2. MTT- Cytotoxicity assay method […]
should not exceed 10^6 cells/cm2. Each test should include a blank containing complete medium […]
salt solution without phenol red and serum. Add reconstituted MTT in an amount equal to 10% of the culture medium volume.

[1] = Homo sapiens, RPMI-8226, read-out: Cytotoxicity IC50 RPMI-8226, MTT, mean ± SD

Row | SMILES | IC50 (leukemia SR) [µM] | inhibition at 10 µM (NCI-H23) [%] | inhibition at 10 µM (SK-MEL-5) [%] | inhibition at 10 µM (SNB-19) [%] | inhibition at 10 µM (A549/ATCC) [%] | inhibition at 10 µM (MOLT-4) [%] | inhibition at 10 µM (SF-539) [%] | inhibition at 10 µM (HCC-2998) [%] | inhibition at 10 µM (SK-MEL-2) [%] | inhibition at 10 µM (PC-3) [%] | inhibition at 10 µM (K-562) [%] | inhibition at 10 µM (MALME-3M) [%] | inhibition at 10 µM (CCRF-CEM) [%] | inhibition at 10 µM (BT-549) [%] | inhibition at 10 µM (HOP-62) [%] | inhibition at 10 µM (OVCAR-4) [%] | inhibition at 10 µM (HT29) [%] | inhibition at 10 µM (UACC-62) [%] | inhibition at 10 µM (NCI-H460) [%] | inhibition at 10 µM (MCF7) [%] | other results
1 | COc1cc2c(c(OC)c1OC)-c1ccc(OC)c(=O)cc1[C@@H](NC(C)=O)CC2 [Colchicine, colchicine, reference compound] | 1.81 ± 0.0701 | – | – | – | – | – | – | – | – | – | – | – | – | – | – | – | – | – | – | – | IC50 (leukemia RPMI-8226; Homo sapiens, RPMI-8226, read-out: Cytotoxicity IC50 RPMI-8226): 4.05 ± 0.0478 µM
2 | COC(=O)/C=C1/S/C(=N/NC(=O)c2cc3ccc2CCc2ccc(cc2)CC3)N(C2CC2)C1=O [Compound 3f] | – | 9.32 | 14.5 | 11.3 | 11.4 | 55.6 | 0 | 0 | 13.5 | 18.9 | 30.5 | 11.3 | 41.4 | 26.8 | 0 | 10.5 | 24 | 18 | 1.98 | 36.4 | inhibition at 10 µM (TK-10): 0%; inhibition at 10 µM (OVCAR-3): 15.9%; inhibition at 10 µM (T-47D): 23%; inhibition at 10 µM (NCI-H322M): 4.43%; inhibition at 10 µM (HL-60(TB)): 26.4%
3 | COC(=O)C=C1SC(=Nc2cccnc2)N(NC(=O)c2cc3ccc2CCc2ccc(cc2)CC3)C1=O [Compound 3c, Methyl (E)-2-((E)-3-[2.2]paracyclophanyl)amido-4-oxo-2-(pyridin-3-ylimino)-thiazolidin-5-ylidene)acetate] | 4.84 ± 0.0843 | 9.18 | 3.64 | 16.6 | 2.04 | 21.9 | 11.6 | 0 | 0 | 18.2 | 20.7 | 0 | 31.3 | 18.4 | 4 | 7.76 | 7.71 | 10.7 | 0.75 | 26.8 | inhibition at 10 µM (TK-10): 0%; inhibition at 10 µM (OVCAR-3): 4.51%; inhibition at 10 µM (T-47D): 31.1%; inhibition at 10 µM (NCI-H322M): 1.72%; IC50 (leukemia RPMI-8226; [1]): 9.69 µM; IC50 (leukemia RPMI-8226; read-out: Cytotoxicity IC50 RPMI-8226, MTT, mean ± SD): 9.96 ± 0.345 µM; inhibition at 10 µM (HL-60(TB)): 48.6%
4 | COC(=O)C=C1SC(=NNC(=O)c2cc3ccc2CCc2ccc(cc2)CC3)N(c2ccccc2)C1=O [Compound 3a] | 1.11 ± 0.0685 | 59.6 | 30.6 | 60.1 | 30.9 | 97 | 122 | 96.4 | 13 | 136 | 73 | 21.2 | 87 | 64.5 | 97 | 70.6 | 113 | 74.8 | 39.4 | 76.8 | inhibition at 10 µM (TK-10): 84.8%; inhibition at 10 µM (OVCAR-3): 106%; inhibition at 10 µM (T-47D): 138%; inhibition at 10 µM (NCI-H322M): 31.5%; IC50 (leukemia RPMI-8226; [1]): 1.61 ± 0.0654 µM; inhibition at 10 µM (HL-60(TB)): 83.6%
5 | COC(=O)C=C1SC(=NNC(=O)c2cc3ccc2CCc2ccc(cc2)CC3)N(Cc2ccccc2)C1=O [Compound 3b] | 2.02 ± 0.0688 | 22.6 | 17.7 | 43.1 | 22.9 | 98.9 | 56.7 | 20.5 | 14.4 | 82.2 | 81.1 | 11.6 | 96.2 | 89.7 | 22.8 | 55.4 | 87.6 | 48.1 | 6.29 | 67.3 | inhibition at 10 µM (TK-10): 4.53%; inhibition at 10 µM (OVCAR-3): 79.7%; inhibition at 10 µM (T-47D): 106%; inhibition at 10 µM (NCI-H322M): 6.7%; IC50 (leukemia RPMI-8226; [1]): 4.62 ± 0.0459 µM; inhibition at 10 µM (HL-60(TB)): 105%
